# Assay results published in the supplement of paper PMC10331698.
# ± gives the standard deviation of the averaged measurements.
# Tests used:
# Experiment in all cases: level (log10 ratio to DMSO vehicle control); higher = higher biomarker level / cell amount than vehicle control
# Settings in all cases: in DMSO
# [1] = compound: OCC(F)(F)C(F)(F)C(F)(F)C(F)(F)C(F)(F)C(F)(F)F [6:1 Fluorotelomer alcohol]
# Description: (§1)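 BioMAP Diversity Plus panel of 12 human primary cell co-culture systems (3C, 4H, LPS, SAg, BT, BF4T, BE3C, CASM3C, HDF3CGF, KF3CT, MyoF, Mphg). Compounds were added 1 h before stimulation and left for 24 h (MyoF 48 h; BT 72 h for soluble read-outs or 6 d for IgG). Biomarkers were read by ELISA, cytotoxicity by SRB, PBMC viability and proliferation by Alamar Blue. Each well value was divided by the mean of 8 DMSO control wells on the same plate and log10 transformed; duplicate blinded samples were tested at 4 concentrations.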
# [2] = compound: OCC(F)(F)C(F)(F)C(F)(F)C(F)(F)C(F)(F)C(F)(F)C(F)(F)C(F)(F)C(F)(F)C(F)(F)C(F)(F)F [11:1 Fluorotelomer alcohol]
# Description: as §1
# [3] = compound: O=C(CC(=O)C(F)(F)C(F)(F)C(F)(F)F)c1cccs1 [(Perfluorobutyryl)-2-thenoylmethane]
# Description: as §1
# [4] = compound: O=C(O)C(F)(F)C(F)(F)C(=O)O [Tetrafluorosuccinic acid]
# Description: as §1
# [5] = compound: C=CC(=O)OCC(F)(F)C(F)(F)C(F)(F)C(F)(F)C(F)(F)C(F)(F)C(F)(F)C(F)F [1H,1H,9H-Perfluorononyl acrylate]
# Description: as §1
# [6] = compound: Cc1ccc(S(=O)(=O)OCC(F)(F)C(F)(F)C(F)(F)C(F)(F)C(F)(F)C(F)F)cc1 [1H,1H,7H-Perfluoroheptyl 4-methylbenzenesulfonate]
# Description: as §1
# [7] = compound: FC(F)(F)COC(OCC(F)(F)F)OCC(F)(F)F [tris(Trifluoroethoxy)methane]
# Description: as §1
Test System,level (log10) ([1]; 6700 nM),level (log10) ([1]; 20000 nM),level (log10) ([1]; 60000 nM),level (log10) ([2]; 1100 nM),level (log10) ([2]; 3300 nM),level (log10) ([2]; 10000 nM),level (log10) ([3]; 6700 nM),level (log10) ([3]; 20000 nM),level (log10) ([4]; 6700 nM),level (log10) ([4]; 20000 nM),level (log10) ([4]; 60000 nM),level (log10) ([5]; 6700 nM),level (log10) ([5]; 20000 nM),level (log10) ([5]; 60000 nM),level (log10) ([6]; 6700 nM),level (log10) ([6]; 20000 nM),level (log10) ([6]; 60000 nM),level (log10) ([7]; 6700 nM),level (log10) ([7]; 20000 nM),level (log10) ([7]; 60000 nM)
4H:CCL2/MCP-1,-0.005 ± 0.0071,-0.0135 ± 0.0035,0.002 ± 0.042,0.0335 ± 0.033,0.0495 ± 0.00071,0.0835 ± 0.023,-0.0825 ± 0.0078,-0.249 ± 0.0042,-0.037 ± 0.021,-0.04 ± 0.028,-0.0055 ± 0.086,-0.0255 ± 0.0064,-0.0105 ± 0.028,0.0245 ± 0.019,-0.0455 ± 0.023,-0.098 ± 0.0071,-0.178 ± 0.05,-0.017 ± 0.017,-0.017 ± 0.018,0.031 ± 0.054
LPS:CD142/Tissue Factor,-0.0035 ± 0.03,0.0215 ± 0.011,0.0155 ± 0.016,0.056 ± 0.0028,0.084 ± 0.03,0.0995 ± 0.00071,-0.004 ± 0.093,0.323 ± 0.0028,-0.001 ± 0.047,-0.0155 ± 0.079,0.014 ± 0.037,0.019 ± 0.025,0.0415 ± 0.026,-0.015 ± 0.013,-0.0355 ± 0.11,-0.022 ± 0.065,0.161 ± 0.039,-0.013 ± 0.011,-0.02 ± 0.027,-0.0085 ± 0.06
BF4T:CCL26/Eotaxin-3,0.0385 ± 0.026,0.0185 ± 0.022,0.0445 ± 0.03,-0.012 ± 0.0042,-0.003 ± 0.011,-0.0015 ± 0.0078,-0.181 ± 0.0035,-0.464 ± 0.018,0.018 ± 0.04,-0.02 ± 0.04,-0.0075 ± 0.015,-0.0095 ± 0.061,-0.066 ± 0.078,-0.084 ± 0.018,-0.0095 ± 0.046,-0.077 ± 0.068,-0.095 ± 0.018,0.0055 ± 0.025,-0.011 ± 0.0014,0.012 ± 0.0057
4H:CD62P/P-selectin,-0.023 ± 0.038,-0.0435 ± 0.029,-0.182 ± 0.079,-0.111 ± 0.042,-0.095 ± 0.079,-0.139 ± 0.13,-0.0205 ± 0.037,-0.41 ± 0.032,0.001 ± 0.017,-0.011 ± 0.0042,-0.0005 ± 0.015,-0.0135 ± 0.037,-0.045 ± 0.011,-0.109,0.052 ± 0.033,0.002 ± 0.035,0.149 ± 0.012,-0.0215 ± 0.064,0.011 ± 0.088,-0.0135 ± 0.053
3C:SRB,-0.0045 ± 0.0092,-0.0025 ± 0.012,-0.21 ± 0.3,-0.043 ± 0.0014,-0.115 ± 0.021,-0.116 ± 0.014,-0.0035 ± 0.028,-0.139 ± 0.021,-0.0065 ± 0.011,-0.0135 ± 0.0078,-0.021 ± 0.017,0.0015 ± 0.0078,0.016 ± 0.0042,-0.014 ± 0.023,0.006 ± 0.0071,-0.016 ± 0.013,-0.125 ± 0.0042,-0.02,-0.0035 ± 0.00071,-0.006 ± 0.02
SAg:CD62E/E-Selectin,0.0085 ± 0.026,-0.001 ± 0.0085,0 ± 0.025,0.045 ± 0.0057,0.0325 ± 0.018,0.0355 ± 0.035,-0.164 ± 0.0092,-0.113 ± 0.02,-0.015,-0.003 ± 0.016,0.0035 ± 0.0035,-0.0345 ± 0.016,-0.0595 ± 0.015,-0.121 ± 0.052,0.021 ± 0.0028,0.007 ± 0.018,-0.0115 ± 0.028,0.004 ± 0.034,-0.022 ± 0.025,-0.0045 ± 0.026
SAg:CD69,-0.0215 ± 0.011,-0.0205 ± 0.0092,-0.0045 ± 0.0064,-0.0355 ± 0.021,-0.0425 ± 0.029,-0.038 ± 0.023,-0.128 ± 0.02,-0.166 ± 0.0085,0.012 ± 0.061,0.0055 ± 0.025,0.023 ± 0.02,-0.0475 ± 0.028,-0.0395 ± 0.03,-0.099 ± 0.018,-0.01 ± 0.0099,0.0205 ± 0.016,0.0105 ± 0.00071,0.022 ± 0.0042,0.0105 ± 0.011,0.0215 ± 0.0035
LPS:CD40,0.053 ± 0.016,0.048 ± 0.052,0.041 ± 0.0028,0.0305 ± 0.028,0.0205 ± 0.0035,-0.0275 ± 0.00071,-0.0095 ± 0.071,-0.0805 ± 0.083,-0.016 ± 0.0028,-0.0185 ± 0.0092,-0.007 ± 0.014,-0.001 ± 0.05,-0.0785 ± 0.029,-0.181 ± 0.064,-0.0185 ± 0.066,0.0215 ± 0.054,0.129 ± 0.061,-0.0235 ± 0.023,-0.0275 ± 0.0092,-0.013 ± 0.027
BE3C:CD87/uPAR,0.007 ± 0.017,-0.0075 ± 0.0078,0.0105 ± 0.035,-0.035 ± 0.0014,-0.0795 ± 0.012,-0.0385 ± 0.026,0.013 ± 0.0028,-0.007 ± 0.0014,0.0095 ± 0.021,-0.0045 ± 0.00071,0.012 ± 0.014,0.0055 ± 0.023,0.0395 ± 0.012,0.0365 ± 0.016,0.026 ± 0.017,-0.004 ± 0.0085,0.005 ± 0.033,-0.01 ± 0.0028,0.0475 ± 0.047,-0.0075 ± 0.023
SAg:CXCL9/MIG,-0.0025 ± 0.021,-0.013 ± 0.018,-0.0055 ± 0.0092,-0.004 ± 0.03,-0.0175 ± 0.035,0.012 ± 0.03,-0.0075 ± 0.0035,-0.0245 ± 0.011,-0.006 ± 0.0014,0.003,0.013 ± 0.0099,-0.0135 ± 0.0021,0.003 ± 0.0099,-0.0155 ± 0.0078,0.001 ± 0.0042,-0.028,-0.0075 ± 0.0064,0.0015 ± 0.018,0.011 ± 0.0042,0.014 ± 0.0028
BF4T:CD106/VCAM-1,0.0075 ± 0.0021,-0.007 ± 0.031,-0.032 ± 0.0028,0.0045 ± 0.016,-0.021 ± 0.025,-0.016 ± 0.02,0.0215 ± 0.052,-0.236 ± 0.063,0.0205 ± 0.0092,-0.0155 ± 0.029,-0.033 ± 0.021,-0.007 ± 0.0071,-0.0165 ± 0.04,0.0185 ± 0.066,0.009 ± 0.042,0.024 ± 0.0014,-0.0055 ± 0.04,-0.014 ± 0.0042,-0.005 ± 0.023,0.003 ± 0.023
BT:sIL-17A,-0.063 ± 0.088,-0.107 ± 0.11,-0.475 ± 0.093,0.329 ± 0.16,0.401 ± 0.032,0.325 ± 0.06,-0.135 ± 0.17,-0.524 ± 0.047,-0.0215 ± 0.084,-0.0995 ± 0.00071,-0.074 ± 0.021,-0.174 ± 0.019,-0.509 ± 0.17,-1.28 ± 0.4,0.093 ± 0.0099,0.037 ± 0.045,-0.117 ± 0.12,-0.0445 ± 0.0078,-0.126 ± 0.15,0.079 ± 0.02
SAg:Proliferation,-0.0075 ± 0.005,-0.0455 ± 0.0035,-0.0325 ± 0.13,-0.248 ± 0.083,-0.364 ± 0.13,-0.473 ± 0.35,-0.298 ± 0.019,-0.585,0.017 ± 0.04,-0.0205 ± 0.032,0.049 ± 0.027,-0.024 ± 0.0014,-0.166 ± 0.029,-0.58 ± 0.14,-0.0085 ± 0.07,-0.011 ± 0.0085,-0.0335 ± 0.086,-0.012 ± 0.0014,0.013 ± 0.04,0.007 ± 0.013
BF4T:SRB,-0.0045 ± 0.0064,-0.0045 ± 0.013,-0.004 ± 0.023,-0.003 ± 0.0014,-0.0075 ± 0.0064,0.001 ± 0.014,-0.023 ± 0.0085,-0.057 ± 0.0042,-0.0035 ± 0.0021,-0.005 ± 0.0028,-0.0025 ± 0.00071,-0.0045 ± 0.005,-0.001 ± 0.016,0.0065 ± 0.021,-0.003 ± 0.0042,-0.008 ± 0.0028,-0.015 ± 0.0099,-0.0065 ± 0.0064,-0.0085 ± 0.00071,-0.003 ± 0.014
